From ChEMBL document CHEMBL1132079, “Combined NK1 and NK2 tachykinin receptor antagonists: synthesis and structure-activity relationships of novel oxazolidine analogues” (Bioorg Med Chem Lett, 1999) come the findings set out here.

Usually IC50 stands for the point on the concentration scale where inhibition reaches its midpoint. A high value points to weaker potency.

For one assay, the target named is T1, Substance-K receptor (Cavia porcellus, UniProt Q64077).
T1 sequence (Q64077 whole entry): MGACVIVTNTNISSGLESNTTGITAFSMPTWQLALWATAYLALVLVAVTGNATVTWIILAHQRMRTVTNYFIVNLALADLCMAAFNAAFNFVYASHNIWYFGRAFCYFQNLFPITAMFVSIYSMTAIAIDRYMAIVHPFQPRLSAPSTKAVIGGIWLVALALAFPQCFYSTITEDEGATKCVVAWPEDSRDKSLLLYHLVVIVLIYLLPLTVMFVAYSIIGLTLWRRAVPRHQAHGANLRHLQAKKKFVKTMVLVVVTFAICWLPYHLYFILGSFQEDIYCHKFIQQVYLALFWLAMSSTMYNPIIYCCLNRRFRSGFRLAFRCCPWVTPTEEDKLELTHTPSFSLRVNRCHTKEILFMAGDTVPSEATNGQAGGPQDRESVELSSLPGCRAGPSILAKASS
Nature of the assay: Inhibitory activity against Neurokinin 2 (NK2) receptor from guinea pig ileum. The class given is tissue-based.

Another assay concerns the target Substance-P receptor (Cavia porcellus, UniProt P30547). Description: Inhibitory activity against Neurokinin 1 (NK1) receptor from guinea pig lung.
In assay [1] the test system is Cavia porcellus. Description: In vivo inhibitory activity against SP-induced vascular hyperpermeability in guinea pig after iv administration. Type of assay: functional. The note with it: read-out: ID50 (the source's name).
Assay [2] has as its system Cavia porcellus. Description: In vivo inhibitory activity against [Nle10] ]-NKA[4-10]-induced bronchoconstriction in guinea pig after iv administration. The note with it: read-out: ID50 (the source's name). The class given is functional.

Sequence of Substance-P receptor (P30547 whole entry): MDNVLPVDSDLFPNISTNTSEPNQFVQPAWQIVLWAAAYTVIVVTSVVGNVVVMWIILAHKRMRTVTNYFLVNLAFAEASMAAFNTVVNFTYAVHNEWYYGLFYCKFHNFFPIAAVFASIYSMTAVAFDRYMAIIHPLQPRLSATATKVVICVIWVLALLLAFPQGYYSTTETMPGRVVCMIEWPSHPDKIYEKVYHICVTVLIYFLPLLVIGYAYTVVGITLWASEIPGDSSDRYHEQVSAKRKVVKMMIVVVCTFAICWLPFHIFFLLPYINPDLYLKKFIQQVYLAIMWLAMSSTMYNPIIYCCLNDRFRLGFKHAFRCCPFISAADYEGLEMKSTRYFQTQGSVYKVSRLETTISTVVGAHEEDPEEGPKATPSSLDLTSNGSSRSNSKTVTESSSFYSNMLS

With `COc1cc(C(=O)N2CO[C@](CCN3CCC(C(=O)N(C)C)(c4ccccc4)CC3)(c3ccc(Cl)c(Cl)c3)C2)cc(OC)c1OC`, the values for the half-maximal inhibitory concentration (IC50) on Substance-K receptor and against Substance-P receptor were 8.2 nM and 25.3 nM, respectively.
As to `COc1cc(C(=O)N2CO[C@](CCN3CCC(C(N)=O)(c4ccccc4)CC3)(c3ccc(F)c(F)c3)C2)cc(OC)c1OC`, the IC50 is 328 nM against Substance-K receptor and 16.4 nM at Substance-P receptor.
For `COc1cc(C(=O)N2CO[C@](CCN3CCC(C(=O)N4CCOCC4)(c4ccccc4)CC3)(c3ccc(Cl)c(Cl)c3)C2)cc(OC)c1OC` the same measures were 73 nM and 44.9 nM.
For `COc1cc(C(=O)N2CO[C@](CCN3CCC(C(=O)N(C)C)(c4ccccc4)CC3)(c3ccc(F)cc3)C2)cc(OC)c1OC` the same measures were 15 nM and 27.4 nM.
As to `COc1cc(C(=O)N2CO[C@](CCN3CCC(C(N)=O)(c4ccccc4)CC3)(c3ccc(Cl)c(Cl)c3)C2)cc(OC)c1OC`, the values for the IC50 against Substance-K receptor and on Substance-P receptor were 142 nM and 9.65 nM, respectively.
For `COc1cc(C(=O)N2CO[C@](CCN3CCC4(CC3)NC(=O)Cc3ccccc34)(c3ccc(F)c(F)c3)C2)cc(OC)c1OC`, in that order: 10.9 nM and 45 nM.
For `COc1cc(C(=O)N2CO[C@](CCN3CCC4(CC3)c3ccccc3C[S+]4[O-])(c3ccc(F)cc3)C2)cc(OC)c1OC` (stereo partly drawn) the same measures were 34.5 nM and 24.6 nM.
For `COc1cc(C(=O)N2CO[C@](CCN3CCC4(CC3)c3ccccc3C[S+]4[O-])(c3ccc(Cl)c(Cl)c3)C2)cc(OC)c1OC` (stereo partly drawn), the figures for the ED50 in the assay on Cavia porcellus [1] and in the assay with Cavia porcellus [2] were 0.025 mg/kg and 0.074 mg/kg, respectively. For the same molecule, the values for the IC50 on Substance-K receptor and on Substance-P receptor were 11.4 nM and 10.2 nM, respectively.
Consider `COc1cc(C(=O)N2CO[C@](CCN3CCC(O)(c4ccncc4)CC3)(c3ccc(Cl)c(Cl)c3)C2)cc(OC)c1OC`, for which the figures for the concentration for half-maximal inhibition (IC50) against Substance-K receptor and against Substance-P receptor were 144 nM and 3.08 nM, respectively.
For `COc1cc(C(=O)N2CO[C@](CCN3CCC(C(=O)N(C)C)(c4ccccc4)CC3)(c3ccc(F)c(F)c3)C2)cc(OC)c1OC`, in that order: 20.4 nM and 42.3 nM.
For `COc1cc(C(=O)N2CO[C@](CCN3CCC4(CC3)NC(=O)Cc3ccccc34)(c3ccc(F)cc3)C2)cc(OC)c1OC`, in that order: 10.3 nM and 48 nM.
For `COc1cc(C(=O)N2CO[C@](CCN3CCC(C(=O)N(C)C)(c4ccccc4)CC3)(c3ccc(Cl)cc3)C2)cc(OC)c1OC`, in that order: 7.39 nM and 78.6 nM.
For the molecule `COc1cc(C(=O)N2CO[C@](CCN3CCC4(CC3)C(=O)N(C)c3ccccc34)(c3ccc(Cl)c(Cl)c3)C2)cc(OC)c1OC`, the results for the IC50 at Substance-K receptor and against Substance-P receptor were 51.9 nM and 14.1 nM, respectively.
For `COc1cc(C(=O)N2CO[C@](CCN3CCC4(CC3)NC(=O)Cc3ccccc34)(c3ccc(Cl)c(Cl)c3)C2)cc(OC)c1OC`, in that order: 4.58 nM and 18.3 nM.
`COc1cc(C(=O)N2CO[C@](CCCN3CCC(C(N)=O)(c4ccccc4)CC3)(c3ccc(Cl)c(Cl)c3)C2)cc(OC)c1OC`: the IC50 against Substance-K receptor was more than 1520 nM; against Substance-P receptor, 35 nM.
For `COc1ccc(C(=O)N2CO[C@](CCN3CCC(C(N)=O)(c4ccccc4)CC3)(c3ccc(Cl)c(Cl)c3)C2)cc1`, in that order: 292 nM and 112 nM.
For `COc1cc(C(=O)N2CO[C@](CCN3CCC4(CC3)c3ccccc3C[S+]4[O-])(c3ccc(F)c(F)c3)C2)cc(OC)c1OC` (stereo partly drawn) the same measures were 30.3 nM and 25.5 nM.
For `NC(=O)C1(c2ccccc2)CCN(CC[C@@]2(c3ccc(Cl)c(Cl)c3)CN(C(=O)c3cc(C(F)(F)F)cc(C(F)(F)F)c3)CO2)CC1`, in that order: 160 nM and 145 nM.
In the case of `COc1cc(C(=O)N2CO[C@](CCN3CCC(C(N)=O)(c4ccccc4)CC3)(c3ccc(Cl)cc3)C2)cc(OC)c1OC`, the IC50 on Substance-K receptor was 329 nM; against Substance-P receptor it was 44.4 nM.
Regarding `COc1cc(C(=O)N2CO[C@](CCN3CCC4(CC3)NC(=O)Cc3ccccc34)(c3ccc(Cl)cc3)C2)cc(OC)c1OC`, the IC50 is 5.16 nM against Substance-K receptor and 82.2 nM against Substance-P receptor.
With `COc1cc(C(=O)N2CO[C@](CCN3CCC4(CC3)c3ccccc3CS4(=O)=O)(c3ccc(Cl)c(Cl)c3)C2)cc(OC)c1OC`, the IC50 at Substance-K receptor is 28.1 nM; against Substance-P receptor, 34 nM.
With `COc1cc(C(=O)N2CO[C@](CCN3CCC4(CC3)c3ccccc3C[S+]4[O-])(c3ccc(Cl)cc3)C2)cc(OC)c1OC` (stereo partly drawn), the IC50 was 11 nM against Substance-K receptor and 19.2 nM on Substance-P receptor.
For `COc1cc(C(=O)N2CO[C@](CCN3CCC(C(=O)N4CCCC4)(c4ccccc4)CC3)(c3ccc(Cl)c(Cl)c3)C2)cc(OC)c1OC`, in that order: 91.9 nM and 11.2 nM.
